In patent publication US20030083304A1, “CCAAT/enhancer binding protein-beta (C/EBPbeta) is a molecular target for cancer treatment” (priority 2001, published 2003):
Marks after values point to notes of the source that are not given here.

Legend:
C/EBPβ = experiment: Ha-ras (12V)-induced activation of C/EBPβ in mouse keratinocytes; type: cell-based
Description: A MAPK site has been identified in C/EBPβ. Replacing Thr-188 with an Ala-188 within this site completely blocks Ras-induced activation of C/EBPβ. […] Thus, the MAPK site in C/EBPβ, which is conserved in mouse, rat, bovine and human, is important in Ras signaling. Accordingly, useful compounds of the present invention are MAPK inhibitors such as PD98059, or compounds that bind the MAPK site in C/EBPβ and thus block oncogenic ras-induced activation.

mouse skin = conditions: in vivo
epidermal keratinocytes = experiment: Apoptotic epidermal keratinocytes in DMBA-treated mice; type: in vivo, mouse; conditions: for Apoptotic Keratinocytes (%): single application 400 nmol DMBA
Description: The lack of tumor development in carcinogen treated C/EPBβ-null mice could be due to apoptosis of C/EBPβ-deficient keratinoyctes that have acquired oncogenic Ha-ras lesions. To examine this possibility we treated mice with DMBA and scored the number of apoptotic keratinocytes in C/EBPβ-null and wild type epidermis using the cytological parameters described in the Methods. […] Similar fold increases in apoptotic cells were observed using TUNEL staining (data not shown). To determine if C/EBPβ-null mice also display increased apoptosis in response to UVB irradiation, a potent inducer of apoptosis and DNA damage, wild type and C/EBPβ-null mice were irradiated with UVB doses of 50, 100 and 200 mJ/cm^2. While all UVB doses increased the number of apoptotic epidermal keratinocytes, there was no difference between wild type and mutant mice (data not shown).

SMILES: COc1cccc(-c2cc(=O)c3ccccc3o2)c1N [PD98059]
- Ha-ras (12V)-induced activation of C/EBPβ (C/EBPβ): partially blocks

SMILES: ClC1(Cl)C2(Cl)C3(Cl)C4(Cl)C(Cl)(Cl)C5(Cl)C3(Cl)C1(Cl)C5(Cl)C24Cl (centres unmarked) [mirex]
- tumor development (mouse skin): refractory

SMILES: Cc1c2ccccc2c(C)c2c1ccc1ccccc12 [DMBA, 7,12-dimethylbenz[a]anthracene]
- average papillomas/mouse (mouse skin; 129/Sv x C57BL/6 (wild type)): 12 papillomas/mouse
- papilloma incidence (mouse skin): All of the wild-type mice developed papillomas
- resistance to carcinogenesis (mouse skin): completely resistant
- increase in the number of basal apoptotic keratinocytes, C/EBPβ-null vs wild type mice (epidermal keratinocytes; DMBA-treated): 17 fold
- Apoptotic Keratinocytes (%) (epidermal keratinocytes; C/EBPβ −/− mice): 1.73 ± 0.14^ab %
- Apoptotic Keratinocytes (%) (epidermal keratinocytes; wild type mice): 0.10 ± 0.02^a %
